Reference: ChEMBL document CHEMBL5385857, “Optimization and SAR research at the benzoxazole and tetrazole rings of JNJ4796 as new anti-influenza A virus agents, part 2” (Eur J Med Chem, 2023)

Key:
Influenza A virus = test: Antiviral activity against oseltamivir-resistant influenza A virus H1N1 clinical isolate IAV/Tianjin Jinnan/15/2009 infected in MDCK cells; assay type: functional, organism-based; settings: H1N1(IAV/Tianjin Jinnan/15/2009)
[1] = Selectivity index, ratio of CC50 for MDCK cells to IC50 for oseltamivir-resistant influenza A virus H1N1 clinical isolate IAV/Tianjin Jinnan/15/2009 infected in MDCK cells; assay type: toxicity, cell-based; settings: dog, read-out: Ratio CC50/IC50

| SMILES | IC50 (Influenza A virus) [nM] | selectivity ratio [1] |
| --- | --- | --- |
| CC(=O)Nc1ccc2oc(-c3ccnc(C(=O)N4CCN([C@H](c5ccc(F)cc5)c5nnn(C6CCCC6)n5)CC4)c3)nc2c1 | 440 | 198 |
| CC(=O)Nc1ccc2oc(-c3ccnc(C(=O)N4CCN([C@@H](c5ccccc5)c5nnn(C(C)C)n5)CC4)c3)nc2c1 | 1510 | > 66 |
| CCCCn1nnc([C@@H](c2ccc(F)cc2)N2CCN(C(=O)c3cc(-c4nc5cc(NC(C)=O)ccc5o4)ccn3)CC2)n1 | 220 | > 454 |
| CCCCn1nnc([C@H](c2ccc(F)cc2)N2CCN(C(=O)c3cc(-c4nc5cc(NC(C)=O)ccc5o4)ccn3)CC2)n1 | 4850 | > 20 |
| CC(=O)Nc1ccc2oc(-c3ccnc(C(=O)N4CCN([C@H](c5ccc(F)cc5)c5nnn(C(C)C)n5)CC4)c3)nc2c1 | 70 | > 1430 |
| CC(=O)Nc1ccc2oc(-c3ccnc(C(=O)N4CCN([C@@H](c5ccc(F)cc5)c5nnn(CCC(C)C)n5)CC4)c3)nc2c1 | 11700 | > 8 |
| C=Cn1nnc([C@@H](c2ccc(F)cc2)N2CCN(C(=O)c3cc(-c4nc5cc(NC(C)=O)ccc5o4)ccn3)CC2)n1 | 90 | > 196 |
| CC(=O)Nc1ccc2oc(-c3ccnc(C(=O)N4CCN([C@H](c5ccccc5)c5nnn(C(C)C)n5)CC4)c3)nc2c1 | 70 | > 1430 |
| CCC(CC)n1nnc([C@H](c2ccc(F)cc2)N2CCN(C(=O)c3cc(-c4nc5cc(NC(C)=O)ccc5o4)ccn3)CC2)n1 | 960 | > 104 |
| CC(=O)Nc1ccc2oc(-c3ccnc(C(=O)N4CCN([C@@H](c5ccc(F)cc5)c5nnn(C(C)C)n5)CC4)c3)nc2c1 | 2290 | > 43 |
| CC(=O)Nc1ccc2oc(-c3ccnc(C(=O)N4CCN([C@@H](c5ccc(F)cc5)c5nnn(C6CCCC6)n5)CC4)c3)nc2c1 | 2460 | 39 |
| CCC(CC)n1nnc([C@@H](c2ccc(F)cc2)N2CCN(C(=O)c3cc(-c4nc5cc(NC(C)=O)ccc5o4)ccn3)CC2)n1 | 220 | > 454 |
| C=Cn1nnc([C@H](c2ccc(F)cc2)N2CCN(C(=O)c3cc(-c4nc5cc(NC(C)=O)ccc5o4)ccn3)CC2)n1 | 6860 | > 14.5 |
| CC(=O)Nc1ccc2oc(-c3ccnc(C(=O)N4CCN([C@H](c5ccc(F)cc5)c5nnn(CCC(C)C)n5)CC4)c3)nc2c1 | 730 | > 136 |
